Assay results taken from ChEMBL document CHEMBL1201862, “PubChem BioAssay data set” (2004).
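Where inhibition never reached the appropriate level, the endpoint shown equals the highest concentration tested. Otherwise, values were interpolated linearly from a five-concentration, 48-hour dose response in 96-well plates. The concentration for 50% growth inhibition is given as GI50.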 The source made the active and inactive calls. Rule as the data show it: active = GI50 up to about 1.1 µM and inactive = higher.

Key:
Assay in all cases: NCI anticancer screen, dose series, 48 h
Malme-3M = test system: Malme-3M
LOX IMVI = test system: LOX IMVI
MOLT-4 = test system: MOLT-4
HCT-15 = test system: HCT-15
SK-MEL-5 = test system: SK-MEL-5
HCC 2998 = test system: HCC 2998
BT-549 = test system: BT-549
PC-3 = test system: PC-3
EKVX = test system: EKVX
M14 = test system: M14
SNB-19 = test system: SNB-19
SK-MEL-2 = test system: SK-MEL-2
MDA-N = test system: MDA-N
HT-29 = test system: HT-29
COLO 205 = test system: COLO 205
MDA-MB-435 = test system: MDA-MB-435
KM12 = test system: KM12
UACC-62 = test system: UACC-62
SNB-75 = test system: SNB-75
TK-10 = test system: TK-10
K562 = test system: K562
A549 = test system: A549
NCI-H226 = test system: NCI-H226
CCRF-CEM = test system: CCRF-CEM
SF-268 = test system: SF-268
OVCAR-4 = test system: OVCAR-4
OVCAR-8 = test system: OVCAR-8
786-0 = test system: 786-0
NCI-H522 = test system: NCI-H522
SK-OV-3 = test system: SK-OV-3
T47D = test system: T47D
CAKI-1 = test system: CAKI-1
NCI-H23 = test system: NCI-H23
RPMI-8226 = test system: RPMI-8226
NCI/ADR-RES = test system: NCI/ADR-RES
HL-60 = test system: HL-60
ACHN = test system: ACHN
HOP-92 = test system: HOP-92
UO-31 = test system: UO-31
SK-MEL-28 = test system: SK-MEL-28
RXF 393 = test system: RXF 393
Hs-578T = test system: Hs-578T
OVCAR-5 = test system: OVCAR-5
SR = test system: SR
MCF7 = test system: MCF7
OVCAR-3 = test system: OVCAR-3
MDA-MB-231 = test system: MDA-MB-231
SF-295 = test system: SF-295
UACC-257 = test system: UACC-257
SW-620 = test system: SW-620
IGROV-1 = test system: IGROV-1
DU-145 = test system: DU-145
HCT-116 = test system: HCT-116
SF-539 = test system: SF-539
U-251 = test system: U-251
A498 = test system: A498
NCI-H460 = test system: NCI-H460
SN12C = test system: SN12C
HOP-62 = test system: HOP-62

For `N#CCCC1C(C#N)C2CC1C1C3C=CC(C3)C21` (centres undefined), the GI50 (Malme-3M) was > 100 µM (inactive), the GI50 (LOX IMVI) was > 100 µM (inactive) and the GI50 (MOLT-4) was > 100 µM (inactive). The GI50 (HCT-15) was greater than 100 µM, the GI50 (SK-MEL-5) was > 100 µM (inactive) and the GI50 (HCC 2998) was > 100 µM (inactive). The GI50 (BT-549) was > 100 µM (inactive), the GI50 (PC-3) was > 100 µM (inactive) and the GI50 (EKVX) was > 100 µM (inactive). The GI50 (M14) was > 100 µM (inactive), the GI50 (SNB-19) was > 100 µM (inactive) and the GI50 (SK-MEL-2) was > 100 µM (inactive). For the same compound, the GI50 (MDA-N) was > 100 µM (inactive), the GI50 (HT-29) was > 100 µM (inactive) and the GI50 (COLO 205) was > 100 µM (inactive). The GI50 (MDA-MB-435) was > 100 µM (inactive), the GI50 (KM12) was > 100 µM (inactive) and the GI50 (UACC-62) was > 100 µM (inactive). The GI50 (SNB-75) was > 100 µM (inactive), the GI50 (TK-10) was > 100 µM (inactive) and the GI50 (K562) was > 100 µM (inactive). For the same compound, the GI50 (A549) was > 100 µM (inactive), the GI50 (NCI-H226) was > 100 µM (inactive) and the GI50 (CCRF-CEM) was > 100 µM (inactive). The GI50 (SF-268) was > 100 µM (inactive), the GI50 (OVCAR-4) was > 100 µM (inactive) and the GI50 (OVCAR-8) was > 100 µM (inactive). For the same compound, the GI50 (786-0) was > 100 µM (inactive), the GI50 (NCI-H522) was > 100 µM (inactive) and the GI50 (SK-OV-3) was > 100 µM (inactive). For the same compound, the GI50 (T47D) was > 100 µM (inactive), the GI50 (CAKI-1) was > 100 µM (inactive) and the GI50 (NCI-H23) was > 100 µM (inactive). The GI50 (RPMI-8226) was > 100 µM (inactive), the GI50 (NCI/ADR-RES) was > 100 µM (inactive) and the GI50 (HL-60) was > 100 µM (inactive). For the same compound, the GI50 (ACHN) was > 100 µM (inactive), the GI50 (HOP-92) was > 100 µM (inactive) and the GI50 (UO-31) was > 100 µM (inactive). The GI50 (SK-MEL-28) was > 100 µM (inactive), the GI50 (RXF 393) was 63.4 µM (inactive) and the GI50 (Hs-578T) was > 100 µM (inactive). The GI50 (OVCAR-5) was > 100 µM (inactive), the GI50 (SR) was > 100 µM (inactive) and the GI50 (MCF7) was > 100 µM (inactive). For the same compound, the GI50 (OVCAR-3) was > 100 µM (inactive), the GI50 (MDA-MB-231) was > 100 µM (inactive) and the GI50 (SF-295) was > 100 µM (inactive). For the same compound, the GI50 (UACC-257) was > 100 µM (inactive), the GI50 (SW-620) was > 100 µM (inactive) and the GI50 (IGROV-1) was > 100 µM (inactive). The GI50 (DU-145) was > 100 µM (inactive) and the GI50 (HCT-116) was > 100 µM (inactive).

`CSC1=NN(c2ccccc2)C(=O)C1=C(SC)SC` was tested, and the GI50 (Malme-3M) was 11.2 µM (inactive), the GI50 (LOX IMVI) was 20.2 µM (inactive) and the GI50 (MOLT-4) was 26 µM (inactive). For the same compound, the GI50 (HCT-15) was 20.1 µM, the GI50 (SK-MEL-5) was 16.3 µM (inactive) and the GI50 (HCC 2998) was 25.6 µM (inactive). The GI50 (BT-549) was 27.4 µM (inactive), the GI50 (PC-3) was 15.1 µM (inactive) and the GI50 (EKVX) was 27.7 µM (inactive). For the same compound, the GI50 (M14) was 37.2 µM (inactive), the GI50 (SNB-19) was 23.2 µM (inactive) and the GI50 (SF-539) was 21.7 µM (inactive). The GI50 (SK-MEL-2) was 22.8 µM (inactive), the GI50 (MDA-N) was 30.7 µM (inactive) and the GI50 (HT-29) was 19.1 µM (inactive). For the same compound, the GI50 (COLO 205) was 13.2 µM (inactive), the GI50 (MDA-MB-435) was 31.9 µM (inactive) and the GI50 (KM12) was 31.6 µM (inactive). For the same compound, the GI50 (UACC-62) was 21.2 µM (inactive), the GI50 (SNB-75) was 27.4 µM (inactive) and the GI50 (TK-10) was 19.5 µM (inactive). The GI50 (U-251) was 22.2 µM (inactive), the GI50 (K562) was 20.1 µM (inactive) and the GI50 (A498) was 13.3 µM (inactive). The GI50 (A549) was 20 µM (inactive), the GI50 (NCI-H226) was 16.1 µM (inactive) and the GI50 (CCRF-CEM) was 14.2 µM (inactive). The GI50 (SF-268) was 26.1 µM (inactive), the GI50 (NCI-H460) was 14.2 µM (inactive) and the GI50 (OVCAR-4) was 19.4 µM (inactive). The GI50 (OVCAR-8) was 21.5 µM (inactive), the GI50 (786-0) was 24.2 µM (inactive) and the GI50 (NCI-H522) was 2.44 µM (inactive). The GI50 (SK-OV-3) was 31.1 µM (inactive), the GI50 (T47D) was 18.2 µM (inactive) and the GI50 (SN12C) was 28.4 µM (inactive). The GI50 (CAKI-1) was 20 µM (inactive), the GI50 (NCI-H23) was 19.1 µM (inactive) and the GI50 (RPMI-8226) was 14.3 µM (inactive). The GI50 (NCI/ADR-RES) was 18.4 µM (inactive), the GI50 (HL-60) was 15.9 µM (inactive) and the GI50 (UO-31) was 12.1 µM (inactive). The GI50 (SK-MEL-28) was 30.5 µM (inactive), the GI50 (RXF 393) was 13.9 µM (inactive) and the GI50 (Hs-578T) was 18.1 µM (inactive). For the same compound, the GI50 (OVCAR-5) was 31.6 µM (inactive), the GI50 (SR) was 24 µM (inactive) and the GI50 (MCF7) was 19.2 µM (inactive). For the same compound, the GI50 (OVCAR-3) was 42.6 µM (inactive), the GI50 (MDA-MB-231) was 14.3 µM (inactive) and the GI50 (UACC-257) was 16 µM (inactive). For the same compound, the GI50 (SW-620) was 33.5 µM (inactive), the GI50 (DU-145) was 29.9 µM (inactive) and the GI50 (HCT-116) was 16.7 µM (inactive).

With `COC1OC(Cn2c(C)nc(Br)c2Br)C(O)C(O)C1O` (centres undefined) the GI50 (Malme-3M) was > 100 µM (inactive), the GI50 (MOLT-4) was > 100 µM (inactive) and the GI50 (HCT-15) was greater than 100 µM. For the same compound, the GI50 (SK-MEL-5) was > 100 µM (inactive), the GI50 (HCC 2998) was > 100 µM (inactive) and the GI50 (BT-549) was > 100 µM (inactive). The GI50 (PC-3) was > 100 µM (inactive), the GI50 (EKVX) was > 100 µM (inactive) and the GI50 (M14) was > 100 µM (inactive). For the same compound, the GI50 (SNB-19) was > 100 µM (inactive), the GI50 (SK-MEL-2) was > 100 µM (inactive) and the GI50 (MDA-N) was > 100 µM (inactive). For the same compound, the GI50 (HT-29) was > 100 µM (inactive), the GI50 (COLO 205) was > 100 µM (inactive) and the GI50 (MDA-MB-435) was > 100 µM (inactive). The GI50 (KM12) was > 100 µM (inactive), the GI50 (UACC-62) was > 100 µM (inactive) and the GI50 (SNB-75) was > 100 µM (inactive). For the same compound, the GI50 (U-251) was > 100 µM (inactive), the GI50 (K562) was > 100 µM (inactive) and the GI50 (A498) was > 100 µM (inactive). For the same compound, the GI50 (A549) was > 100 µM (inactive), the GI50 (CCRF-CEM) was > 100 µM (inactive) and the GI50 (NCI-H460) was > 100 µM (inactive). The GI50 (OVCAR-4) was > 100 µM (inactive), the GI50 (OVCAR-8) was > 100 µM (inactive) and the GI50 (786-0) was > 100 µM (inactive). The GI50 (NCI-H522) was > 100 µM (inactive), the GI50 (SK-OV-3) was > 100 µM (inactive) and the GI50 (T47D) was > 100 µM (inactive). The GI50 (CAKI-1) was > 100 µM (inactive), the GI50 (NCI-H23) was > 100 µM (inactive) and the GI50 (RPMI-8226) was > 100 µM (inactive). The GI50 (NCI/ADR-RES) was > 100 µM (inactive), the GI50 (HOP-62) was > 100 µM (inactive) and the GI50 (ACHN) was > 100 µM (inactive). The GI50 (HOP-92) was > 100 µM (inactive), the GI50 (UO-31) was > 100 µM (inactive) and the GI50 (SK-MEL-28) was > 100 µM (inactive). For the same compound, the GI50 (RXF 393) was > 100 µM (inactive), the GI50 (Hs-578T) was > 100 µM (inactive) and the GI50 (OVCAR-5) was > 100 µM (inactive). The GI50 (SR) was > 10 µM (inactive), the GI50 (MCF7) was > 100 µM (inactive) and the GI50 (OVCAR-3) was > 100 µM (inactive). The GI50 (MDA-MB-231) was > 100 µM (inactive), the GI50 (SF-295) was > 100 µM (inactive) and the GI50 (UACC-257) was > 100 µM (inactive). For the same compound, the GI50 (SW-620) was > 100 µM (inactive), the GI50 (IGROV-1) was > 100 µM (inactive) and the GI50 (DU-145) was > 100 µM (inactive). The GI50 (HCT-116) was > 100 µM (inactive).
